Data from ChEMBL document CHEMBL1932945, “One-pot regioselective synthesis of tetrahydroindazolones and evaluation of their antiproliferative and Src kinase inhibitory activities” (Bioorg Med Chem Lett, 2012).
Active and inactive are the calls of the source. No cut-off for these calls is given here.

System: SK-OV-3
Assay: Antiproliferative activity against human SKOV3 cells overexpressing c-Src at 50 uM after 72 hrs by Cell titer assay
Type: functional
Settings: not given

| Structure (SMILES) | inhibition |
| --- | --- |
| COc1ccc(-n2nc3c(c2-c2ccc(C(C)(C)C)cc2)C(=O)CC(C)(C)C3)cc1 | Active |
| CC1(C)CC(=O)c2c(nn(-c3ccc(Cl)cc3)c2-c2ccc(C(C)(C)C)cc2)C1 | Active |
| COc1ccc(-n2nc3c(c2-c2ccc(C(C)(C)C)cc2)C(=O)CC(C)(C)C3)cc1OC | Active |
| O=C1CCCc2nn(-c3ccc(Cl)cc3)c(-c3ccc(Cl)c(Cl)c3)c21 | Active |
| CC1(C)OC(=O)c2c(nn(-c3ccc(Cl)cc3)c2C2CCCCC2)O1 | Active |
| Cc1ccc(-c2c3c(nn2-c2ccc(Cl)cc2)CC(C)(C)CC3=O)cc1Cl | Active |
| Cc1ccc(-n2nc3c(c2-c2ccc(C(C)(C)C)cc2)C(=O)CC(C)(C)C3)cc1 | Active |
| Cc1ccc(-c2c3c(nn2-c2ccc[nH]2)CC(C)(C)CC3=O)cc1Cl | Active |
| Cc1ccc(-n2nc3c(c2-c2ccc(Cl)c(Cl)c2)C(=O)CC(C)(C)C3)cc1 | Active |
| CC1(C)CC(=O)c2c(nn(-c3cccs3)c2-c2ccc(Cl)c(Cl)c2)C1 | Active |
| COc1ccc(-n2nc3c(c2-c2ccc(Cl)c(Cl)c2)C(=O)CC(C)(C)C3)cc1O | Active |
| O=C1CCCc2nn(-c3ccc(O)cc3)c(-c3ccc(Cl)c(Cl)c3)c21 | Active |
| O=C1CCCc2nn(-c3cccc(Cl)c3)c(C3CCCCC3)c21 | Active |
| O=C1CCCc2nn(-c3ccc([N+](=O)[O-])cc3)c(-c3ccc(Cl)c(Cl)c3)c21 | Active |
| CC1(C)CC(=O)c2c(nn(-c3ccc(O)cc3)c2-c2ccc(Cl)c(Cl)c2)C1 | Active |
| COc1ccc(-n2nc3c(c2-c2ccc(Cl)c(Cl)c2)C(=O)CC(C)(C)C3)cc1 | Active |
| CC1(C)CC(=O)c2c(nn(-c3ccc(Cl)c(Cl)c3)c2-c2ccc(Cl)cc2)C1 | Active |
| COc1cccc(-n2nc3c(c2-c2ccc(C)c(Cl)c2)C(=O)CCC3)c1 | Active |
| Cc1ccc(-c2c3c(nn2-c2ccncc2)CC(C)(C)CC3=O)cc1Cl | Active |
| CC1(C)CC(=O)c2c(nn(-c3ccc[nH]3)c2-c2ccc(Cl)c(Cl)c2)C1 | Active |
| Cc1ccc(-n2nc3c(c2C2CCCCC2)C(=O)CCC3)cc1 | Active |
| COc1ccc(-n2nc3c(c2-c2ccc(Cl)c(Cl)c2)C(=O)CCC3)cc1 | Active |
| CC1(C)CC(=O)c2c(nn(-c3ccc([N+](=O)[O-])cc3)c2-c2ccc(Cl)c(Cl)c2)C1 | Active |
| CC1(C)OC(=O)c2c(nn(-c3ccc(Cl)cc3)c2-c2ccc(C(C)(C)C)cc2)O1 | Active |
| CC1(C)CC(=O)c2c(nn(-c3ccccc3)c2-c2ccc(Cl)c(Cl)c2)C1 | Active |
| O=C1CCCc2nn(-c3ccccc3F)c(-c3ccc(Cl)c(Cl)c3)c21 | Active |
| COc1cccc2c1C(=O)c1c(O)c3c(c(O)c1C2=O)C[C@@](O)(C(=O)CO)C[C@@H]3O[C@H]1C[C@H](N)[C@H](O)[C@H](C)O1 | Active |
| COc1ccc(-n2nc3c(c2-c2ccc(Cl)c(Cl)c2)C(=O)CCC3)cc1O | Active |
| O=C1CCCc2nn(-c3ccccc3)c(-c3ccc(Cl)c(Cl)c3)c21 | Active |
| CC1(C)CC(=O)c2c(nn(-c3ccc([N+](=O)[O-])cc3)c2C2CCCCC2)C1 | Active |

Same assay, conditions: SK-OV-3, 72 h

| Structure (SMILES) | inhibition at 50 µM [%] |
| --- | --- |
| O=C1CCCc2nn(-c3cccs3)c(-c3ccc(Cl)c(Cl)c3)c21 | 58 |
| CC1(C)CC(=O)c2c(nn(-c3cccs3)c2C2CCCCC2)C1 | 49 |
| Cc1ccc(-n2nc3c(c2-c2ccc(Cl)c(Cl)c2)C(=O)CCC3)cc1 | 49 |

Target: Proto-oncogene tyrosine-protein kinase Src (Homo sapiens, UniProt P12931)
Sequence (P12931 2-536 limits assumed): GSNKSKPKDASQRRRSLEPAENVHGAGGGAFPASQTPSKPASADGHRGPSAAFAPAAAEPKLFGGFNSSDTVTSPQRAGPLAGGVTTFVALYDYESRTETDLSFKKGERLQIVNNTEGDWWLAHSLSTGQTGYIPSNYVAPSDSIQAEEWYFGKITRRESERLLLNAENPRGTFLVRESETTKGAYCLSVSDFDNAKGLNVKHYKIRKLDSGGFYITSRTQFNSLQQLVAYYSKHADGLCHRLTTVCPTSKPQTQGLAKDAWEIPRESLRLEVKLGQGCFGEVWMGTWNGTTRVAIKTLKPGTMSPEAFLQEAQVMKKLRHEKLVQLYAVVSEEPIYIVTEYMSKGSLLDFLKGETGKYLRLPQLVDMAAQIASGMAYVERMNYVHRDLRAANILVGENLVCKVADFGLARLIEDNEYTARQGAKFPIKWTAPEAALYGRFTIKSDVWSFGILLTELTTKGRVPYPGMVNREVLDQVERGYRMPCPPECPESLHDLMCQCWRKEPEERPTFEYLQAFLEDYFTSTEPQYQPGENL
Assay: Inhibition of His6-tagged c-Src kinase domain using AEEEIYGEFEAKKKK as substrate pre-incubated for 10 mins before substrate addition measured after 30 mins by Transcreener ADP2 FI Assay
Settings: not given

| Structure (SMILES) | IC50 [µM] |
| --- | --- |
| COc1ccc(-n2nc3c(c2-c2ccc(C(C)(C)C)cc2)C(=O)CC(C)(C)C3)cc1 | 35.1 |
| CC1(C)CC(=O)c2c(nn(-c3ccc(Cl)cc3)c2-c2ccc(C(C)(C)C)cc2)C1 | > 150 |
| COc1ccc(-n2nc3c(c2-c2ccc(C(C)(C)C)cc2)C(=O)CC(C)(C)C3)cc1OC | > 150 |
| O=C1CCCc2nn(-c3cccs3)c(-c3ccc(Cl)c(Cl)c3)c21 | > 150 |
| CC1(C)CC(=O)c2c(nn(-c3cccs3)c2C2CCCCC2)C1 | 77.3 |
| O=C1CCCc2nn(-c3ccc(Cl)cc3)c(-c3ccc(Cl)c(Cl)c3)c21 | 81 |
| CC1(C)OC(=O)c2c(nn(-c3ccc(Cl)cc3)c2C2CCCCC2)O1 | > 150 |
| Cc1ccc(-c2c3c(nn2-c2ccc(Cl)cc2)CC(C)(C)CC3=O)cc1Cl | 132 |
| Cc1ccc(-n2nc3c(c2-c2ccc(C(C)(C)C)cc2)C(=O)CC(C)(C)C3)cc1 | > 150 |
| Cc1ccc(-c2c3c(nn2-c2ccc[nH]2)CC(C)(C)CC3=O)cc1Cl | > 150 |
| Cc1ccc(-n2nc3c(c2-c2ccc(Cl)c(Cl)c2)C(=O)CC(C)(C)C3)cc1 | > 150 |
| CC1(C)CC(=O)c2c(nn(-c3cccs3)c2-c2ccc(Cl)c(Cl)c2)C1 | > 150 |
| COc1ccc(-n2nc3c(c2-c2ccc(Cl)c(Cl)c2)C(=O)CC(C)(C)C3)cc1O | > 150 |
| O=C1CCCc2nn(-c3ccc(O)cc3)c(-c3ccc(Cl)c(Cl)c3)c21 | > 150 |
| O=C1CCCc2nn(-c3cccc(Cl)c3)c(C3CCCCC3)c21 | 58.4 |
| O=C1CCCc2nn(-c3ccc([N+](=O)[O-])cc3)c(-c3ccc(Cl)c(Cl)c3)c21 | > 150 |

| Structure (SMILES) | IC50 [µM] |
| --- | --- |
| CC1(C)CC(=O)c2c(nn(-c3ccc(O)cc3)c2-c2ccc(Cl)c(Cl)c2)C1 | 66.6 |
| COc1ccc(-n2nc3c(c2-c2ccc(Cl)c(Cl)c2)C(=O)CC(C)(C)C3)cc1 | 94.1 |
| Cc1ccc(-n2nc3c(c2-c2ccc(Cl)c(Cl)c2)C(=O)CCC3)cc1 | > 150 |
| CC1(C)CC(=O)c2c(nn(-c3ccc(Cl)c(Cl)c3)c2-c2ccc(Cl)cc2)C1 | 86 |
| COc1cccc(-n2nc3c(c2-c2ccc(C)c(Cl)c2)C(=O)CCC3)c1 | 82.7 |
| Cc1ccc(-c2c3c(nn2-c2ccncc2)CC(C)(C)CC3=O)cc1Cl | 74.3 |
| CC1(C)CC(=O)c2c(nn(-c3ccc[nH]3)c2-c2ccc(Cl)c(Cl)c2)C1 | > 150 |
| Cc1ccc(-n2nc3c(c2C2CCCCC2)C(=O)CCC3)cc1 | 57.7 |
| COc1ccc(-n2nc3c(c2-c2ccc(Cl)c(Cl)c2)C(=O)CCC3)cc1 | > 150 |
| CC1(C)CC(=O)c2c(nn(-c3ccc([N+](=O)[O-])cc3)c2-c2ccc(Cl)c(Cl)c2)C1 | > 150 |
| CC1(C)OC(=O)c2c(nn(-c3ccc(Cl)cc3)c2-c2ccc(C(C)(C)C)cc2)O1 | > 150 |
| CC1(C)CC(=O)c2c(nn(-c3ccccc3)c2-c2ccc(Cl)c(Cl)c2)C1 | 62.1 |
| O=C1CCCc2nn(-c3ccccc3F)c(-c3ccc(Cl)c(Cl)c3)c21 | > 150 |
| COc1ccc(-n2nc3c(c2-c2ccc(Cl)c(Cl)c2)C(=O)CCC3)cc1O | > 150 |
| O=C1CCCc2nn(-c3ccccc3)c(-c3ccc(Cl)c(Cl)c3)c21 | 65.8 |
| CC1(C)CC(=O)c2c(nn(-c3ccc([N+](=O)[O-])cc3)c2C2CCCCC2)C1 | > 150 |

System: HT-29
Assay: Antiproliferative activity against human HT-29 cells overexpressing c-Src at 50 uM after 72 hrs by Cell titer assay
Type: functional
Settings: not given

| Structure (SMILES) | inhibition |
| --- | --- |
| COc1ccc(-n2nc3c(c2-c2ccc(C(C)(C)C)cc2)C(=O)CC(C)(C)C3)cc1 | Active |
| CC1(C)CC(=O)c2c(nn(-c3ccc(Cl)cc3)c2-c2ccc(C(C)(C)C)cc2)C1 | Active |
| O=C1CCCc2nn(-c3ccc(Cl)cc3)c(-c3ccc(Cl)c(Cl)c3)c21 | Active |
| CC1(C)OC(=O)c2c(nn(-c3ccc(Cl)cc3)c2C2CCCCC2)O1 | Active |
| Cc1ccc(-c2c3c(nn2-c2ccc(Cl)cc2)CC(C)(C)CC3=O)cc1Cl | Active |
| Cc1ccc(-n2nc3c(c2-c2ccc(C(C)(C)C)cc2)C(=O)CC(C)(C)C3)cc1 | Active |
| Cc1ccc(-c2c3c(nn2-c2ccc[nH]2)CC(C)(C)CC3=O)cc1Cl | Active |
| Cc1ccc(-n2nc3c(c2-c2ccc(Cl)c(Cl)c2)C(=O)CC(C)(C)C3)cc1 | Active |
| CC1(C)CC(=O)c2c(nn(-c3cccs3)c2-c2ccc(Cl)c(Cl)c2)C1 | Active |
| COc1ccc(-n2nc3c(c2-c2ccc(Cl)c(Cl)c2)C(=O)CC(C)(C)C3)cc1O | Active |
| O=C1CCCc2nn(-c3ccc(O)cc3)c(-c3ccc(Cl)c(Cl)c3)c21 | Active |
| O=C1CCCc2nn(-c3cccc(Cl)c3)c(C3CCCCC3)c21 | Active |
| O=C1CCCc2nn(-c3ccc([N+](=O)[O-])cc3)c(-c3ccc(Cl)c(Cl)c3)c21 | Active |
| CC1(C)CC(=O)c2c(nn(-c3ccc(O)cc3)c2-c2ccc(Cl)c(Cl)c2)C1 | Active |
| COc1ccc(-n2nc3c(c2-c2ccc(Cl)c(Cl)c2)C(=O)CC(C)(C)C3)cc1 | Active |
| CC1(C)CC(=O)c2c(nn(-c3ccc(Cl)c(Cl)c3)c2-c2ccc(Cl)cc2)C1 | Active |
| COc1cccc(-n2nc3c(c2-c2ccc(C)c(Cl)c2)C(=O)CCC3)c1 | Active |
| CC1(C)CC(=O)c2c(nn(-c3ccc[nH]3)c2-c2ccc(Cl)c(Cl)c2)C1 | Active |
| Cc1ccc(-n2nc3c(c2C2CCCCC2)C(=O)CCC3)cc1 | Active |
| COc1ccc(-n2nc3c(c2-c2ccc(Cl)c(Cl)c2)C(=O)CCC3)cc1 | Active |
| CC1(C)CC(=O)c2c(nn(-c3ccc([N+](=O)[O-])cc3)c2-c2ccc(Cl)c(Cl)c2)C1 | Active |
| CC1(C)OC(=O)c2c(nn(-c3ccc(Cl)cc3)c2-c2ccc(C(C)(C)C)cc2)O1 | Active |
| CC1(C)CC(=O)c2c(nn(-c3ccccc3)c2-c2ccc(Cl)c(Cl)c2)C1 | Active |
| O=C1CCCc2nn(-c3ccccc3F)c(-c3ccc(Cl)c(Cl)c3)c21 | Active |
| COc1cccc2c1C(=O)c1c(O)c3c(c(O)c1C2=O)C[C@@](O)(C(=O)CO)C[C@@H]3O[C@H]1C[C@H](N)[C@H](O)[C@H](C)O1 | Active |
| COc1ccc(-n2nc3c(c2-c2ccc(Cl)c(Cl)c2)C(=O)CCC3)cc1O | Active |
| CC1(C)CC(=O)c2c(nn(-c3ccc([N+](=O)[O-])cc3)c2C2CCCCC2)C1 | Active |

Same assay, conditions: HT-29, 72 h

| Structure (SMILES) | inhibition at 50 µM [%] |
| --- | --- |
| COc1ccc(-n2nc3c(c2-c2ccc(C(C)(C)C)cc2)C(=O)CC(C)(C)C3)cc1OC | 65 |
| O=C1CCCc2nn(-c3cccs3)c(-c3ccc(Cl)c(Cl)c3)c21 | 62 |
| CC1(C)CC(=O)c2c(nn(-c3cccs3)c2C2CCCCC2)C1 | 48 |
| Cc1ccc(-n2nc3c(c2-c2ccc(Cl)c(Cl)c2)C(=O)CCC3)cc1 | 48 |
| Cc1ccc(-c2c3c(nn2-c2ccncc2)CC(C)(C)CC3=O)cc1Cl | 65 |
| O=C1CCCc2nn(-c3ccccc3)c(-c3ccc(Cl)c(Cl)c3)c21 | 65 |
